Data taken from patent US12077503B2, “Substituted cyclic amides and their use as herbicides” (FMC CORPORATION, priority 2015, dated 2024).

Key:
Format in all cases: in vivo
rice (Oryra sativa) = assay: Test B flooded paddy test; conditions: Oryza sativa, Flood, 250 g ai/ha; scale of 0 to 100 where 0 is no effect and 100 is complete control; read-out: Rice plant response rating
Outline: (§1)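 Evaluation by eye, against controls, occurred 13–15 d post-treatment in a greenhouse, using a 0 (no effect) to 100 (complete control) scale. Application was into the paddy water, 3 cm deep over the soil, on 2-leaf plants.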

[1] = test system: barnyardgrass (Echinochloa crus-galli); assay: Test B flooded paddy test; conditions: Echinochloa crus-galli, Flood, 250 g ai/ha; scale of 0 to 100 where 0 is no effect and 100 is complete control; read-out: Barnyardgrass plant response rating
Outline: as §1

[2] = test system: ducksalad (Heteranthera limosa); assay: Test B flooded paddy test; conditions: Heteranthera limosa, Flood, 250 g ai/ha; scale of 0 to 100 where 0 is no effect and 100 is complete control; read-out: Ducksalad plant response rating
Outline: as §1

[3] = test system: sedge, umbrella (small-flower umbrella sedge, Cyperus difformis); assay: Test B flooded paddy test; conditions: Cyperus difformis, 250 g ai/ha, Flood; 0 to 100 scale where 0 is no effect and 100 is complete control; read-out: Sedge, Umbrella plant response rating
Outline: as §1

[4] = test system: giant foxtail (Setaria faberii); assay: Test A postemergence; conditions: Setaria faberi, post-emergence, 240 h, Postemergence, read-out: Plant response rating, Foxtail, Giant
Outline: (§2)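 Seeded soil received test chemicals as a preemergence directed spray, and seedlings at one to two leaves, 2–10 cm tall, received them postemergence, in a non-phytotoxic, surfactant-containing solvent mixture. Pots were held in a greenhouse for approximately 10 d, then rated for injury from 0, no effect, to 100, complete control.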

[5] = test system: blackgrass (Alopecurus myosuroides); assay: Test A postemergence; conditions: Alopecurus myosuroides, post-emergence, 240 h, Postemergence, read-out: Plant response rating, Blackgrass
Outline: as §2

Kochia (Kochia scoparia) [6] = assay: Test A postemergence; conditions: Bassia scoparia, post-emergence, 240 h, Postemergence, read-out: Plant response rating, Kochia
Outline: as §2

[7] = test system: barnyardgrass (Echinochloa crus-galli); assay: Test A postemergence; conditions: Echinochloa crus-galli, post-emergence, 240 h, Postemergence, read-out: Plant response rating, Barnyardgrass
Outline: as §2

[8] = test system: wheat (Triticum aestivum); assay: Test A postemergence; conditions: Triticum aestivum, post-emergence, 240 h, Postemergence, read-out: Plant response rating, Wheat
Outline: as §2

[9] = test system: Galium (catchweed bedstraw, Galium aparine); assay: Test A postemergence; conditions: Galium, post-emergence, 240 h, Postemergence, read-out: Plant response rating, Galium
Outline: as §2

[10] = test system: pigweed (Amaranthus retroflexus); assay: Test A postemergence; conditions: Amaranthus retroflexus, post-emergence, 240 h, Postemergence, read-out: Plant response rating, Pigweed
Outline: as §2

[11] = test system: ryegrass, Italian (Italian ryegrass, Lolium multiflorum); assay: Test A postemergence; conditions: Lolium multiflorum, post-emergence, 240 h, Postemergence, read-out: Plant response rating, Ryegrass, Italian
Outline: as §2

[12] = test system: ragweed (common ragweed, Ambrosia elatior); assay: Test A postemergence; conditions: Ambrosia artemisiifolia, post-emergence, 240 h, Postemergence, read-out: Plant response rating, Ragweed
Outline: as §2

corn (Zea mays) = assay: Test A postemergence; conditions: Zea mays, post-emergence, 240 h, Postemergence
Outline: as §2

[13] = test system: giant foxtail (Setaria faberii); assay: Test A preemergence; conditions: Setaria faberi, pre-emergence, 240 h, Preemergence
Outline: as §2

Kochia (Kochia scoparia) [14] = assay: Test A preemergence; conditions: Bassia scoparia, pre-emergence, 240 h, Preemergence
Outline: as §2

[15] = test system: barnyardgrass (Echinochloa crus-galli); assay: Test A preemergence; conditions: Echinochloa crus-galli, pre-emergence, 240 h, Preemergence
Outline: as §2

[16] = test system: pigweed (Amaranthus retroflexus); assay: Test A preemergence; conditions: Amaranthus retroflexus, pre-emergence, 240 h, Preemergence
[17] = test system: ryegrass, Italian (Italian ryegrass, Lolium multiflorum); assay: Test A preemergence; conditions: Lolium multiflorum, pre-emergence, 240 h, Preemergence
Outline: as §2

[18] = test system: ragweed (common ragweed, Ambrosia elatior); assay: Test A preemergence; conditions: Ambrosia artemisiifolia, pre-emergence, 240 h, Preemergence
Outline: as §2

[19] = 125 g ai/ha, visual injury after approximately 10 d, 0 to 100 scale where 0 is no effect and 100 is complete control
[20] = 31 g ai/ha, visual injury after approx. 10 d, 0 to 100 scale, 0 no effect, 100 complete control

O=C(Nc1cccc(F)c1F)[C@H]1C(=O)N(OCc2ccccc2)CC[C@@H]1c1cccc(Cl)c1 [Compound 997]
0%: pest or weed control at 250 g/ha (rice (Oryra sativa)) | pest or weed control at 250 g/ha [1] | pest or weed control at 250 g/ha [2] | pest or weed control at 250 g/ha [3] | pest or weed control at 125 g/ha [4, 19] | pest or weed control at 31 g/ha [4, 20] | pest or weed control at 125 g/ha [5, 19] | pest or weed control at 31 g/ha [5, 20] | pest or weed control at 125 g/ha (Kochia (Kochia scoparia) [6]; [19]) | pest or weed control at 31 g/ha (Kochia (Kochia scoparia) [6]; [20]) | pest or weed control at 125 g/ha [7, 19] | pest or weed control at 31 g/ha [7, 20] | plant injury at 125 g/ha [8, 19] | plant injury at 31 g/ha [8, 20] | pest or weed control at 125 g/ha [9, 19] | pest or weed control at 31 g/ha [9, 20] | pest or weed control at 125 g/ha [10, 19] | pest or weed control at 31 g/ha [10, 20] | pest or weed control at 125 g/ha [11, 19] | pest or weed control at 31 g/ha [11, 20] | pest or weed control at 125 g/ha [12, 19] | pest or weed control at 31 g/ha [12, 20] | Corn plant response rating (crop injury, 0 = no effect, 100 = complete kill) at 125 g/ha (corn (Zea mays); [19]) | Corn plant response rating (crop injury, 0 = no effect, 100 = complete kill) at 31 g/ha (corn (Zea mays); [20]) | pest or weed control at 125 g/ha ([13]; 125 g ai/ha, visual injury rating after approximately 10 d, read-out: Foxtail, Giant plant response rating (0 to 100 scale, 0 is no effect, 100 is complete control)) | pest or weed control at 31 g/ha ([13]; 31 g ai/ha, 0 to 100 scale (0 no effect, 100 complete control), read-out: Plant response rating, Foxtail, Giant) | pest or weed control at 125 g/ha (Kochia (Kochia scoparia) [14]; 125 g ai/ha, visual injury rating after approximately 10 d, read-out: Kochia plant response rating (0 to 100 scale, 0 is no effect, 100 is complete control)) | pest or weed control at 31 g/ha (Kochia (Kochia scoparia) [14]; 31 g ai/ha, 0 to 100 scale (0 no effect, 100 complete control), read-out: Plant response rating, Kochia) | pest or weed control at 125 g/ha ([15]; 125 g ai/ha, visual injury rating after approximately 10 d, read-out: Barnyardgrass plant response rating (0 to 100 scale, 0 is no effect, 100 is complete control)) | pest or weed control at 31 g/ha ([15]; 31 g ai/ha, 0 to 100 scale (0 no effect, 100 complete control), read-out: Plant response rating, Barnyardgrass) | pest or weed control at 125 g/ha ([16]; 125 g ai/ha, visual injury rating after approximately 10 d, read-out: Pigweed plant response rating (0 to 100 scale, 0 is no effect, 100 is complete control)) | pest or weed control at 31 g/ha ([16]; 31 g ai/ha, 0 to 100 scale (0 no effect, 100 complete control), read-out: Plant response rating, Pigweed) | pest or weed control at 125 g/ha ([17]; 125 g ai/ha, visual injury rating after approximately 10 d, read-out: Ryegrass, Italian plant response rating (0 to 100 scale, 0 is no effect, 100 is complete control)) | pest or weed control at 31 g/ha ([17]; 31 g ai/ha, 0 to 100 scale (0 no effect, 100 complete control), read-out: Plant response rating, Ryegrass, Italian) | pest or weed control at 125 g/ha ([18]; 125 g ai/ha, visual injury rating after approximately 10 d, read-out: Ragweed plant response rating (0 to 100 scale, 0 is no effect, 100 is complete control)) | pest or weed control at 31 g/ha ([18]; 31 g ai/ha, 0 to 100 scale (0 no effect, 100 complete control), read-out: Plant response rating, Ragweed)
